According to US10934274B2, “Quinoline derivatives as TAM RTK inhibitors” (Qurient Co., Ltd., priority 2015, dated 2021):

Key:
TYRO3 = target: T1, TYRO3 (Homo sapiens, UniProt Q06418); assay: LanthaScreen Eu kinase binding assay, TYRO3; settings: Tracer 236
T1 construct: purchased Life Technologies
T1 sequence (Q06418 41-890): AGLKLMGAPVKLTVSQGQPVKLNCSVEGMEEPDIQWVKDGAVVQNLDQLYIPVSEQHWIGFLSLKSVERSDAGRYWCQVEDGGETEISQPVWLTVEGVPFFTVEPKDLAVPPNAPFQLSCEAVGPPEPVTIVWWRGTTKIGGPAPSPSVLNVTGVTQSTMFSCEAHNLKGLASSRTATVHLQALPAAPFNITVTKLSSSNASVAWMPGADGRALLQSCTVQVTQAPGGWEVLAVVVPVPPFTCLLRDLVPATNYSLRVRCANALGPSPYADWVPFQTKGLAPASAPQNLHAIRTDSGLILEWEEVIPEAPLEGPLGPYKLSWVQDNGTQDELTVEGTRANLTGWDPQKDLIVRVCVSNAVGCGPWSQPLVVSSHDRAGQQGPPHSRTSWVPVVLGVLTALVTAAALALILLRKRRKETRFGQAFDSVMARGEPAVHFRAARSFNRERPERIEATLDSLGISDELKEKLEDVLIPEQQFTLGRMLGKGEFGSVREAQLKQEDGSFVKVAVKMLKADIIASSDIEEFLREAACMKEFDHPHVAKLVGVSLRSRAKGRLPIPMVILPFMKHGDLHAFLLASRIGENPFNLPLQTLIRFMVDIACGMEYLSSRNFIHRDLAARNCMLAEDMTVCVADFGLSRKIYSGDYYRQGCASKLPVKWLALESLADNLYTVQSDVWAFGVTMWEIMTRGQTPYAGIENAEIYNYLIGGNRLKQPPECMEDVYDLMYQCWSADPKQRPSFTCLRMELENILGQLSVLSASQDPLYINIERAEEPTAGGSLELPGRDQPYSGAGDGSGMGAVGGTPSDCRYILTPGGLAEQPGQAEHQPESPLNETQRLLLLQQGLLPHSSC

Axl = target: T2, Axl (Homo sapiens, UniProt P30530); assay: LanthaScreen Eu kinase binding assay, Axl; settings: Tracer 236
T2 construct: purchased Life Technologies
T2 sequence (P30530 26-894): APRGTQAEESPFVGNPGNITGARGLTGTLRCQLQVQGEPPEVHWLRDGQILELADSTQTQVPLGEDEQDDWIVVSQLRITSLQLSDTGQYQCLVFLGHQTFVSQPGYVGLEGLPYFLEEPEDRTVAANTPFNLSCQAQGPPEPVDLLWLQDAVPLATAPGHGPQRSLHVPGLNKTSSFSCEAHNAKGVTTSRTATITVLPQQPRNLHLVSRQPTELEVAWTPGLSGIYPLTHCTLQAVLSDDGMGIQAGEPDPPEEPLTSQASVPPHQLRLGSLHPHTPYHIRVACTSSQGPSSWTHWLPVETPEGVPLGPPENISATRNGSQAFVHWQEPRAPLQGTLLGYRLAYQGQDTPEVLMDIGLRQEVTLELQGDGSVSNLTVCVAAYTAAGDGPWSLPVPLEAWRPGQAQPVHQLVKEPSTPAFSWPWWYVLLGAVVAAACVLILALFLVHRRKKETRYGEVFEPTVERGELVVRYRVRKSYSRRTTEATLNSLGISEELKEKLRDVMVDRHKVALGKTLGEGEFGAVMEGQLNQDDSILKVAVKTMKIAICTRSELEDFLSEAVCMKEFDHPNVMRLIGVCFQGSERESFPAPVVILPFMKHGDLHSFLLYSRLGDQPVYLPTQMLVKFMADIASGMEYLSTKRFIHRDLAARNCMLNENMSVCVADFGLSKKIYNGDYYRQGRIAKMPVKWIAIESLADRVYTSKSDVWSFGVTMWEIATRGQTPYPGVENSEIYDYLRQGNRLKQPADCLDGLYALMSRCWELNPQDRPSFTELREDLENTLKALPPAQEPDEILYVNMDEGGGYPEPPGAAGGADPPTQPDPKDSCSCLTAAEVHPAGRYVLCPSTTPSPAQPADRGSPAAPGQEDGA

| Compound | Kd (TYRO3) [nM] | Kd (Axl) [nM] |
| --- | --- | --- |
| CCOc1cn(-c2ccc(OC)cc2)nc1C(=O)Nc1ccc(Oc2ccnc3cc(OC)c(OC)cc23)cn1 [Compound 1] | 100 to 1000 | < 100 |
| CCOc1cn(-c2cccs2)nc1C(=O)Nc1ccc(Oc2ccnc3cc(OC)c(OC)cc23)cn1 [Compound 17] | < 100 | < 100 |
| CCOc1cn(-c2ccsc2)nc1C(=O)Nc1ccc(Oc2ccnc3cc(OC)c(OC)cc23)cn1 [Compound 18] | < 100 | < 100 |
| CCOc1cn(-c2cccnc2Cl)nc1C(=O)Nc1ccc(Oc2ccnc3cc(OC)c(OC)cc23)cn1 [Compound 19] | < 100 | < 100 |
| CCOc1cnn(-c2cccs2)c1C(=O)Nc1ccc(Oc2ccnc3cc(OC)c(OC)cc23)cn1 [Compound 20] | 100 to 1000 | < 100 |
| CCOc1cnn(-c2ccsc2)c1C(=O)Nc1ccc(Oc2ccnc3cc(OC)c(OC)cc23)cn1 [Compound 21] | 100 to 1000 | < 100 |
| CCOc1cn(-c2cccnc2C)nc1C(=O)Nc1ccc(Oc2ccnc3cc(OC)c(OC)cc23)cn1 [Compound 23] | < 100 | < 100 |
| CCOc1cn(-c2ccncc2Cl)nc1C(=O)Nc1ccc(Oc2ccnc3cc(OC)c(OC)cc23)cn1 [Compound 26] | 100 to 1000 | < 100 |
| CCOc1cn(CC)nc1C(=O)Nc1ccc(Oc2ccnc3cc(OC)c(OC)cc23)cn1 [Compound 27] | < 100 | < 100 |
| CCOc1cn(C)nc1C(=O)Nc1ccc(Oc2ccnc3cc(OC)c(OC)cc23)cn1 [Compound 29] | 100 to 1000 | 100 to 1000 |
| CCOc1cnn(C)c1C(=O)Nc1ccc(Oc2ccnc3cc(OC)c(OC)cc23)cn1 [Compound 30] | ≥ 1000 | ≥ 1000 |
| CCOc1cn(-c2ccc(N(C)C)cc2Cl)nc1C(=O)Nc1ccc(Oc2ccnc3cc(OC)c(OC)cc23)cn1 [Compound 31] | ≥ 1000 | < 100 |
| CCOc1cn(-c2cc[nH]c2)nc1C(=O)Nc1ccc(Oc2ccnc3cc(OC)c(OC)cc23)cn1 [Compound 32] | < 100 | < 100 |
| CCOc1cn(-c2ccoc2)nc1C(=O)Nc1ccc(Oc2ccnc3cc(OC)c(OC)cc23)cn1 [Compound 33] | < 100 | < 100 |
| CCOc1cn(-c2ccncc2C)nc1C(=O)Nc1ccc(Oc2ccnc3cc(OC)c(OC)cc23)cn1 [Compound 34] | < 100 | < 100 |
| CCOc1cn(-c2cnccn2)nc1C(=O)Nc1ccc(Oc2ccnc3cc(OC)c(OC)cc23)cn1 [Compound 36] | < 100 | < 100 |
| CCOc1cn(CCn2cccn2)nc1C(=O)Nc1ccc(Oc2ccnc3cc(OC)c(OC)cc23)cn1 [Compound 37] | 100 to 1000 | < 100 |
| CCOc1cn(CCOC(F)(F)F)nc1C(=O)Nc1ccc(Oc2ccnc3cc(OC)c(OC)cc23)cn1 [Compound 38] | 100 to 1000 | < 100 |
| CCOc1cn(-c2cnsc2)nc1C(=O)Nc1ccc(Oc2ccnc3cc(OC)c(OC)cc23)cn1 [Compound 39] | < 100 | < 100 |
| CCOc1cn(-c2ccnnc2)nc1C(=O)Nc1ccc(Oc2ccnc3cc(OC)c(OC)cc23)cn1 [Compound 40] | ≥ 1000 | < 100 |
| CCOc1cn(-c2ccc(C#N)cn2)nc1C(=O)Nc1ccc(Oc2ccnc3cc(OC)c(OC)cc23)cn1 [Compound 43] | ≥ 1000 | ≥ 1000 |
| CCOc1oc(-c2cccnc2)nc1C(=O)Nc1ccc(Oc2ccnc3cc(OC)c(OC)cc23)cn1 [Compound 44] | ≥ 1000 | < 100 |
| CCOc1sc(-c2cccnc2)nc1C(=O)Nc1ccc(Oc2ccnc3cc(OC)c(OC)cc23)cn1 [Compound 45] | < 100 | < 100 |
| CCOc1cn(CC2CCO2)nc1C(=O)Nc1ccc(Oc2ccnc3cc(OC)c(OC)cc23)cn1 (stereo not drawn) [Compound 48] | < 100 | < 100 |

Next, values leading:

| Kd (TYRO3) [nM] | Kd (Axl) [nM] | Compound |
| --- | --- | --- |
| < 100 | < 100 | CCOc1cn(-c2cnc(C#N)nc2)nc1C(=O)Nc1ccc(Oc2ccnc3cc(OC)c(OC)cc23)cn1 [Compound 55] |
| < 100 | < 100 | CCOc1cn(-c2ccn(C)c2)nc1C(=O)Nc1ccc(Oc2ccnc3cc(OC)c(OC)cc23)cn1 [Compound 56] |
| < 100 | < 100 | CCOc1cn(-c2ccco2)nc1C(=O)Nc1ccc(Oc2ccnc3cc(OC)c(OC)cc23)cn1 [Compound 57] |
| 100 to 1000 | < 100 | CCOc1cnn(-c2ccco2)c1C(=O)Nc1ccc(Oc2ccnc3cc(OC)c(OC)cc23)cn1 [Compound 58] |
| < 100 | < 100 | CCOc1cn(-c2ncco2)nc1C(=O)Nc1ccc(Oc2ccnc3cc(OC)c(OC)cc23)cn1 [Compound 59] |
| < 100 | < 100 | CCOc1cn(-c2cnccc2CCCN(C)C)nc1C(=O)Nc1ccc(Oc2ccnc3cc(OC)c(OC)cc23)cn1 [Compound 61] |
| < 100 | < 100 | CCOc1cn(CCOC)nc1C(=O)Nc1ccc(Oc2ccnc3cc(OC)c(OC)cc23)cn1 [Compound 64] |
| < 100 | < 100 | CCOc1cn(-c2cnccc2CCN(C)C)nc1C(=O)Nc1ccc(Oc2ccnc3cc(OC)c(OC)cc23)cn1 [Compound 65] |
| 100 to 1000 | < 100 | CCOc1cn(CC(C)=O)nc1C(=O)Nc1ccc(Oc2ccnc3cc(OC)c(OC)cc23)cn1 [Compound 66] |
| ≥ 1000 | < 100 | CCOc1cn(C(C)(C)C(=O)NC)nc1C(=O)Nc1ccc(Oc2ccnc3cc(OC)c(OC)cc23)cn1 [Compound 68] |
| 100 to 1000 | < 100 | CCOc1cn(-c2cnccc2CN(C)C)nc1C(=O)Nc1ccc(Oc2ccnc3cc(OC)c(OC)cc23)cn1 [Compound 73] |
| 100 to 1000 | 100 to 1000 | CCOc1cn(C2CCN(C)C2)nc1C(=O)Nc1ccc(Oc2ccnc3cc(OC)c(OC)cc23)cc1F (stereo not drawn) [Compound 212] |
| ≥ 1000 | ≥ 1000 | CCOc1cnn(C2CCCN(C)C2)c1C(=O)Nc1ccc(Oc2ccnc3cc(OC)c(OC)cc23)cc1F (stereo not drawn) [Compound 213] |
| < 100 | < 100 | CCOc1cn(Cc2cnccn2)nc1C(=O)Nc1ccc(Oc2ccnc3cc(OC)c(OC)cc23)cc1F [Compound 215] |
| 100 to 1000 | < 100 | CCOc1cn(C2CCCN(C(C)=O)C2)nc1C(=O)Nc1ccc(Oc2ccnc3cc(OC)c(OC)cc23)cc1F (stereo not drawn) [Compound 224] |
| 100 to 1000 | < 100 | CCOc1cn(C2CCCN(C(N)=O)C2)nc1C(=O)Nc1ccc(Oc2ccnc3cc(OC)c(OC)cc23)cc1F (stereo not drawn) [Compound 225] |
| 100 to 1000 | < 100 | CCOc1cn(Cc2cnccc2C)nc1C(=O)Nc1ccc(Oc2ccnc3cc(OC)c(OC)cc23)cc1F [Compound 226] |
| < 100 | < 100 | CCOc1cn(-c2cnccc2C(C)(O)CO)nc1C(=O)Nc1ccc(Oc2ccnc3cc(OC)c(OC)cc23)cc1F (stereo not drawn) [Compound 227] |
| < 100 | < 100 | CCOc1cn(-c2nccnc2C(C)(O)CO)nc1C(=O)Nc1ccc(Oc2ccnc3cc(OC)c(OC)cc23)cc1F (stereo not drawn) [Compound 229] |
| ≥ 1000 | < 100 | CCOc1cn(-c2cnc(N)nc2)nc1C(=O)Nc1ccc(Oc2ccnc3cc(OC(C)C)c(OC)cc23)cc1F [Compound 230] |
| < 100 | < 100 | CCOc1cn(-c2cnccc2CO)nc1C(=O)Nc1ccc(Oc2ccnc3cc(OC(C)C)c(OC)cc23)cc1F [Compound 231] |
